Source: US8435978B2, “Substituted sulfonamide compounds” (Gruenenthal GmbH, priority 2006, dated 2013)
Where a name gives a salt, the structure may show the parent alone.

Experiments:
B1R receptor of the rat = target: T1, B1R receptor of the rat (Rattus norvegicus, UniProt P97583); assay: Functional study on the bradykinin receptor 1 (B1R), FLIPR Ca2+ assay, rB1R cells; assay type: cell-based; conditions: CHO-K1, test substance 10 μM, agonist Des-Arg9-bradykinin 100 nM, % inhibition compared with the maximum achievable inhibition, read-out: B1R Antagonism, rat [10 μM] % Inhibition
T1 construct: host or cells: CHO K1 cells (Chinese hamster ovary), stably transfected
T1 sequence (P97583 1-337): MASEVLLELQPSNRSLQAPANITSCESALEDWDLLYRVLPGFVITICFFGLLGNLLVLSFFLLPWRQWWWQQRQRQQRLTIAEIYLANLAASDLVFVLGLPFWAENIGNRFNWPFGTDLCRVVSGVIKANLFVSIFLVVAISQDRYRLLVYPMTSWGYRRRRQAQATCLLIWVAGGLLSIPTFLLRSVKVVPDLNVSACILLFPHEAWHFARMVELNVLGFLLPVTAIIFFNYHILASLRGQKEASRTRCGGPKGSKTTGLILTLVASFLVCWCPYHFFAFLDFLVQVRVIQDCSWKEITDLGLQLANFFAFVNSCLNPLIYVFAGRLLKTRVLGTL
Protocol: (§1) The agonistic or antagonistic action of substances can be quantified on the bradykinin receptor 1 (B1R) of the species human and rat with ectopically expressing cell lines (CHO K1 cells) and with the aid of a Ca^2+-sensitive dye (Fluo-4) using a fluorescent imaging plate reader (FLIPR). The indication in % activation is based on the Ca^2+ signal after addition of Lys-Des-Arg^9-bradykinin (0.5 nM) or Des-Arg^9-bradykinin (100 nM). Antagonists result in a suppression of the Ca^2+ influx following administration of the agonist. The % inhibition in comparison with the maximum achievable inhibition is indicated.
(§2) The agonistic or antagonistic action of substances can be determined on the bradykinin receptor 1 (B1R) of the species human and rat using the following assay. According to this assay, the Ca^2+ influx through the channel is quantified with the aid of a Ca^2+-sensitive dye (type Fluo-4, Molecular Probes Europe BV, Leiden, Netherlands) using a Fluorescent Imaging Plate Reader (FLIPR, Molecular Devices, Sunnyvale, USA).
(§3) Chinese hamster ovary cells (CHO K1 cells) which have been stably transfected with the human B1R gene (hB1R cells, Euroscreen s.a., Gosselies, Belgium) or with the B1R gene of the rat (rB1R cells, Axxam, Milan, Italy) are used. For functional studies, the cells are plated out on black 96-well plates having a clear base (BD Biosciences, Heidelberg, Germany) in a density of 20,000-25,000 cells/well. The cells are incubated overnight at 37° C. and with 5% CO2 in culture medium (hB1R cells: Nutrient Mixture Ham's F12, Gibco Invitrogen GmbH, Karlsruhe, Germany; rB1R cells: D-MEM/F12, Gibco Invitrogen GmbH, Karlsruhe, Germany), with 10 vol. % FBS (fetal bovine serum, Gibco Invitrogen GmbH, Karlsruhe, Germany). On the following day, the cells are loaded for 60 minutes at 37° C. with 2.13 μM Fluo-4 (Molecular Probes Europe BV, Leiden, Netherlands) in HBSS buffer (Hank's buffered saline solution, Gibco Invitrogen GmbH, Karlsruhe, Germany) […] (Sigma-Aldrich, Taufkirchen, Germany) and 10 mM HEPES (Sigma-Aldrich, Taufkirchen, Germany). The plates are then washed twice with HBSS buffer, and HBSS buffer additionally containing 0.1% BSA (bovine serum albumin; Sigma-Aldrich, Taufkirchen, Germany), 5.6 mM glucose and 0.05% gelatin (Merck KGaA, Darmstadt, Germany) is added to the plates. After incubation for a further 20 minutes at room temperature, the plates are inserted into the FLIPR for Ca^2+ measurement. The Ca^2+-dependent fluorescence is measured before and after the addition of substances (λex=488 nm, λem=540 nm). Quantification is carried out by measuring the highest fluorescence intensity (FC, fluorescence counts) over time.
(§4) The FLIPR protocol consists of 2 substance additions. Test substances (10 μM) are first pipetted onto the cells and the Ca^2+ influx is compared with the control (hB1R: Lys-Des-Arg^9-bradykinin 0.5 nM; rB1R: Des-Arg^9-bradykinin 100 nM). This gives the activation in %, based on the Ca^2+ signal after addition of Lys-Des-Arg^9-bradykinin (0.5 nM) or Des-Arg^9-bradykinin (100 nM).
(§5) After 10 minutes' incubation, 0.5 nM Lys-Des-Arg^9-bradykinin (hB1R) or 100 nM Des-Arg^9-bradykinin (rB1R) are applied, and the influx of Ca^2+ is likewise determined. Antagonists lead to suppression of the Ca^2+ influx. The % inhibition compared with the maximum achievable inhibition is calculated.

human B1R receptor = target: T2, human B1R receptor (Homo sapiens, UniProt P46663); assay: Functional study on the bradykinin receptor 1 (B1R), FLIPR Ca2+ assay, hB1R cells; assay type: cell-based; conditions: CHO-K1, test substance 10 μM, agonist Lys-Des-Arg9-bradykinin 0.5 nM, % inhibition compared with the maximum achievable inhibition, read-out: B1R Antagonism, human [10 μM] % Inhibition
T2 construct: host or cells: CHO K1 cells (Chinese hamster ovary), stably transfected
T2 sequence (P46663 1-353): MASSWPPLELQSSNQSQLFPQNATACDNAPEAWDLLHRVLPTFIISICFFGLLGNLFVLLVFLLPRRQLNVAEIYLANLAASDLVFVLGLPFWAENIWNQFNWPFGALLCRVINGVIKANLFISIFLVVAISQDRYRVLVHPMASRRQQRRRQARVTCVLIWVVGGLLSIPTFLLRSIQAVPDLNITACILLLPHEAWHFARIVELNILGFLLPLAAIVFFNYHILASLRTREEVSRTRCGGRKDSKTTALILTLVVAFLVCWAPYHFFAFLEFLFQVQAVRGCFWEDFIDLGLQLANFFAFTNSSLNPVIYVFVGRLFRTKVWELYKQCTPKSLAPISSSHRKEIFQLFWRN
Protocol: as §1, §2, §3, §4, §5

## Cc1cc(Br)cc(C)c1S(=O)(=O)N1CCCCC1COCC(=O)N1CCN(c2ccncc2)CC1 (stereo not drawn) [Example 150, 2-((1-(4-bromo-2,6-dimethylphenylsulfonyl)piperidin-2-yl)methoxy)-1-(4-(pyridin-4-yl)piperazin-1-yl)ethanone]
B1R receptor of the rat
  inhibition at 10 µM: 99.1%
Human B1R receptor
  inhibition at 10 µM: 98.3%

## O=C(COCC1CCCCN1S(=O)(=O)c1c(Cl)cccc1Cl)N1CCN(c2ccc(F)cc2)CC1 (stereo not drawn) [Example 318, 2-((1-(2,6-dichlorophenylsulfonyl)piperidin-2-yl)methoxy)-1-(4-(4-fluorophenyl)piperazin-1-yl)ethanone]
B1R receptor of the rat
  inhibition at 10 µM: 102%
Human B1R receptor
  inhibition at 10 µM: 102%

## COc1ccc(S(=O)(=O)N2CCCCC2CCOCC(=O)N2CCC(CCN3CCCCC3)CC2)cc1 (stereo not drawn) [Example 90, 2-(2-(1-(4-methoxyphenylsulfonyl)piperidin-2-yl)ethoxy)-1-(4-(2-(piperidin-1-yl)-ethyl)piperidin-1-yl)ethanone]
B1R receptor of the rat
  inhibition at 10 µM: 99.5%
Human B1R receptor
  inhibition at 10 µM: 50%

## CN1CCC(N2CCN(C(=O)COCC3CCCCN3S(=O)(=O)c3cccc4c(N(C)C)cccc34)CC2)CC1 (stereo not drawn) [Example 158, 2-((1-(5-(dimethylamino)naphthalen-1-ylsulfonyl)piperidin-2-yl)methoxy)-1-(4-(1-methylpiperidin-4-yl)piperazin-1-yl)ethanone dihydrochloride]
B1R receptor of the rat
  inhibition at 10 µM: 99.3%
Human B1R receptor
  inhibition at 10 µM: 98.5%

## O=C(COCC1CCCN1S(=O)(=O)c1c(Cl)cc(Cl)cc1Cl)NCc1ccc(N2CCOCC2)cc1 (stereo not drawn) [Example 580, N-(4-morpholinobenzyl)-2-((1-(2,4,6-trichlorophenylsulfonyl)pyrrolidin-2-yl)methoxy)acetamide]
B1R receptor of the rat
  inhibition at 10 µM: 88.5%
Human B1R receptor
  inhibition at 10 µM: 39.1%

## O=C(COCC1CCCCN1S(=O)(=O)c1c(Cl)cccc1Cl)N1CCN(c2nc3ccccc3s2)CC1 (stereo not drawn) [Example 553, 1-(4-(benzo[d]thiazol-2-yl)piperazin-1-yl)-2-((1-(2,6-dichlorophenylsulfonyl)piperidin-2-yl)methoxy)ethanone]
B1R receptor of the rat
  inhibition at 10 µM: 101%
Human B1R receptor
  inhibition at 10 µM: 54.1%

## CCN(Cc1ccncc1)C(=O)COCC1CCCCN1S(=O)(=O)c1c(C)cc(OC)cc1C (stereo not drawn) [Example 510, N-ethyl-2-((1-(4-methoxy-2,6-dimethylphenylsulfonyl)piperidin-2-yl)methoxy)-N-(pyridin-4-ylmethyl)acetamide]
B1R receptor of the rat
  inhibition at 10 µM: 102%
Human B1R receptor
  inhibition at 10 µM: 51.4%

## COc1cc(C)c(S(=O)(=O)N2CCCCC2COCC(=O)N2CCNCC2)c(C)c1 (stereo not drawn) [Example 102, 2-((1-(4-methoxy-2,6-dimethylphenylsulfonyl)piperidin-2-yl)methoxy)-1-(piperazin-1-yl)ethanone hydrochloride]
B1R receptor of the rat
  inhibition at 10 µM: 100%
Human B1R receptor
  inhibition at 10 µM: 104%

## CN(C)Cc1ccc(CNC(=O)COCC2CCCCN2S(=O)(=O)c2c(Cl)cc(Cl)cc2Cl)cc1 (stereo not drawn) [Example 37, N-(4-dimethylaminomethyl-benzyl)-2-[1-(2,4,6-trichloro-phenylsulfonyl)-piperidin-2-ylmethoxy]-acetamide]
B1R receptor of the rat
  inhibition at 10 µM: 103%
Human B1R receptor
  inhibition at 10 µM: 78.2%

## COc1cc(C)c(S(=O)(=O)N2CCCC2COCC(=O)N(Cc2ccccc2)c2cc(C)ccn2)c(C)c1 (stereo not drawn) [Example 463, N-benzyl-2-((1-(4-methoxy-2,6-dimethylphenylsulfonyl)pyrrolidin-2-yl)methoxy)-N-(4-methylpyridin-2-yl)acetamide]
B1R receptor of the rat
  inhibition at 10 µM: 101%
Human B1R receptor
  inhibition at 10 µM: 97.4%

## CCN(CC)CCN(CCN(CC)CC)C(=O)COCC1Cc2ccccc2CN1S(=O)(=O)c1c(C)cc(C)cc1C (stereo not drawn) [Example 48, N,N-bis-(2-diethylamino-ethyl)-2-[2-(2,4,6-trimethyl-phenylsulfonyl)-1,2,3,4-tetra-hydro-isoquinolin-3-ylmethoxy]-acetamide]
B1R receptor of the rat
  inhibition at 10 µM: 30.5%
Human B1R receptor
  inhibition at 10 µM: 66.6%

## COc1cc(C)c(S(=O)(=O)N2CCCC2COCC(=O)N2CCN(c3cccc(Cl)c3)CC2)c(C)c1 (stereo not drawn) [Example 346, 1-(4-(3-chlorophenyl)piperazin-1-yl)-2-((1-(4-methoxy-2,6-dimethylphenylsulfonyl)pyrrolidin-2-yl)methoxy)ethanone]
B1R receptor of the rat
  inhibition at 10 µM: 101%
Human B1R receptor
  inhibition at 10 µM: 95.5%

## COc1cc(C)c(S(=O)(=O)N2CCCCC2COCC(=O)N2CCN(CCn3c(C)ccc3C)CC2)c(C)c1 (stereo not drawn) [Example 559, 1-(4-(2-(2,5-dimethyl-1H-pyrrol-1-yl)ethyl)piperazin-1-yl)-2-((1-(4-methoxy-2,6-dimethylphenylsulfonyl)piperidin-2-yl)methoxy)ethanone]
B1R receptor of the rat
  inhibition at 10 µM: 100%
Human B1R receptor
  inhibition at 10 µM: 99.9%

## O=C(COCC1Cc2ccccc2N1S(=O)(=O)c1ccc(Cl)c(Cl)c1)NCC1CCCN(Cc2ccccc2)C1 (stereo not drawn) [Example 16, N-(1-benzyl-piperidin-3-ylmethyl)-2-[1-(3,4-dichloro-phenylsulfonyl)-2,3-dihydro-1H-indol-2-ylmethoxy]-acetamide]
B1R receptor of the rat
  inhibition at 10 µM: 25.5%
Human B1R receptor
  inhibition at 10 µM: 95.9%

## O=C(COCC1CCCCN1S(=O)(=O)c1c(Cl)cccc1Cl)N1CCN(CCc2ccccc2)CC1 (stereo not drawn) [Example 320, 2-((1-(2,6-dichlorophenylsulfonyl)piperidin-2-yl)methoxy)-1-(4-phenethylpiperazin-1-yl)ethanone]
B1R receptor of the rat
  inhibition at 10 µM: 102%
Human B1R receptor
  inhibition at 10 µM: 106%

## Cc1cc(S(=O)(=O)N2CCCCC2COCC(=O)N2CCN(Cc3ccccc3)CC2)c(C)cc1Cl (stereo not drawn) [Example 568, 1-(4-benzylpiperazin-1-yl)-2-((1-(4-chloro-2,5-dimethylphenylsulfonyl)piperidin-2-yl)methoxy)ethanone]
B1R receptor of the rat
  inhibition at 10 µM: 81.3%
Human B1R receptor
  inhibition at 10 µM: 38.5%

## COc1cc(C)c(S(=O)(=O)N2CCCC2COCC(=O)Nc2cccc(CN3CCCCC3)c2)c(C)c1 (stereo not drawn) [Example 471, 2-((1-(4-methoxy-2,6-dimethylphenylsulfonyl)pyrrolidin-2-yl)methoxy)-N-(3-(piperidin-1-ylmethyl)phenyl)acetamide]
B1R receptor of the rat
  inhibition at 10 µM: 98.8%
Human B1R receptor
  inhibition at 10 µM: 103%

## COc1cc(C)c(S(=O)(=O)N2CCCCC2COCC(=O)N(Cc2ccccc2)c2cc(C)ccn2)c(C)c1 (stereo not drawn) [Example 507, N-benzyl-2-((1-(4-methoxy-2,6-dimethylphenylsulfonyl)piperidin-2-yl)methoxy)-N-(4-methylpyridin-2-yl)acetamide]
B1R receptor of the rat
  inhibition at 10 µM: 102%
Human B1R receptor
  inhibition at 10 µM: -10.1%
